Results as given in ChEMBL document CHEMBL1124516, “Synthesis of 2,3-diaziridinyl-1,4-naphthoquinone sulfonate derivatives as potential antineoplastic agents” (1989).

Columns and labels:
Mus musculus [1] = test: Number of mice surviving for a period greater than 50 days when a dose of 30 mg/Kg is administered intraperitoneally; tested in 5 mice; format: functional
Mus musculus [2] = test: Average change in weight in mice bearing the L1210 Leukemia, when compound (25 mg/kg) was administered once daily beginning 24 hr after tumor implantation, for 6 consecutive days.; format: functional
Mus musculus [3] = test: Average change in weight in mice bearing the L1210 Leukemia, when compound(30 mg/kg) was administered once daily beginning 24 hr after tumor implantation, for 6 consecutive days.; format: functional
L1210 [4] = test: Percentage survival time of L1210 (murine leukemia) inoculated mice following 20 mg/kg i.p.; format: functional, Mus musculus; settings: route intraperitoneal
L1210 [5] = test: Number L1210 (murine leukemia) inoculated mice surviving for >50 days following 25 mg/kg i.p.; format: functional, Mus musculus; settings: route intraperitoneal
Mus musculus [6] = test: Number of mice survived for a period greater than 50 days when a dose of 20 mg/Kg is administered intraperitoneally; tested in 5 mice; format: functional
L1210 [7] = test: Percentage survival time of L1210 (murine leukemia) inoculated mice following 30 mg/kg i.p.; format: functional, Mus musculus; settings: route intraperitoneal
Mus musculus [8] = test: Average change in weight in mice bearing the L1210 Leukemia, when compound (20 mg/kg) was administered once daily beginning 24 hr after tumor implantation, for 6 consecutive days.; format: functional
L1210 [9] = test: Percentage survival time of L1210 (murine leukemia) inoculated mice following 25 mg/kg i.p.; format: functional, Mus musculus; settings: route intraperitoneal
Mus musculus [10] = test: Average change in weight in mice bearing the B16 Melanoma, when compound(150 mg/kg) was administered beginning 24 hr after tumor implantation, daily once for 6 consecutive days.; format: functional
Mus musculus [11] = test: Survival of mice bearing B16 melanoma cells greater than 50 days when treated with a dose of 50 mg/Kg administered intraperitoneally; tested in 5 mice; format: functional
Mus musculus [12] = test: Survival of mice bearing B16 melanoma cells greater than 50 days when treated with a dose of 100 mg/Kg administered intraperitoneally; tested in 5 mice; format: functional
Mus musculus [13] = test: Average change in weight in mice bearing the B16 Melanoma, when compound(50 mg/kg) was administered intraperitoneally beginning 24 hr after tumor implantation, daily once for 6 consecutive days.; format: functional
Mus musculus [14] = test: The ratio of the survival time of treated to control animals x 100 in mice bearing B16 Melanoma, when compound (100 mg/kg) was administered intraperitoneally; format: functional
Mus musculus [15] = test: Average change in weight in mice bearing the B16 Melanoma, when compound(100 mg/kg) was administered beginning 24 hr after tumor implantation, daily once for 6 consecutive days.; format: functional
Mus musculus [16] = test: The ratio of the survival time of treated to control animals x 100 in mice bearing B16 Melanoma, when compound (150 mg/kg) was administered intraperitoneally; format: functional
Mus musculus [17] = test: Survival of mice bearing B16 melanoma cells greater than 50 days when treated with a dose of 150 mg/Kg administered intraperitoneally; tested in 5 mice; format: functional
Mus musculus [18] = test: The ratio of the survival time of treated to control animals x 100 in mice bearing B16 Melanoma, when compound (50 mg/kg) was administered intraperitoneally; format: functional

Compound | Survivals (Mus musculus [1]) | Average body weight change (Mus musculus [2]) [%] | Average change in body weight (Mus musculus [3]) [%] | Activity (L1210 [4]) | Survivals (L1210 [5]) | Survivals (Mus musculus [6]) | Activity (L1210 [7]) | Average change in body weight (Mus musculus [8]) [%] | Activity (L1210 [9]) | Average change in body weight (Mus musculus [10]) [%] | Survivals (Mus musculus [11]) | Survivals (Mus musculus [12]) | Average body weight change (Mus musculus [13]) [%] | Activity (Mus musculus [14]) | Average change in body weight (Mus musculus [15]) [%] | Activity (Mus musculus [16]) | Survivals (Mus musculus [17]) | Activity (Mus musculus [18])
O=C1C(N2CC2)=C(N2CC2)C(=O)c2c(OS(=O)(=O)c3ccc([N+](=O)[O-])cc3[N+](=O)[O-])cccc21 | 0 | 4.8 | -1.3 | 111 | 0 | 0 | 100 | 2.3 | 105 |  |  |  |  |  |  |  |  | 
Cc1ccc(S(=O)(=O)Oc2cccc3c2C(=O)C=C(N2CC2)C3=O)cc1 | 0 | 5.1 | 1.2 | 102 | 0 | 0 | 111 | 7.3 | 103 |  |  |  |  |  |  |  |  | 
CC1(C)C2CCC1(CS(=O)(=O)Oc1cccc3c1C(=O)C(N1CC1)=C(N1CC1)C3=O)C(=O)C2 (centres undefined) | 0 | -3.5 | -9.2 | 136 | 0 | 0 | 168 | -9.3 | 148 |  |  |  |  |  |  |  |  | 
O=C1C(N2CC2)=C(N2CC2)C(=O)c2c(OS(=O)(=O)c3ccc(F)cc3)cccc21 | 5 | -5.7 | -3.4 |  | 4 | 5 |  | 0.3 | 200 | -20.3 | 0 | 0 | -5.2 | 182 | -14.3 | 177 | 0 | 159
O=C1C(N2CC2)=C(N2CC2)C(=O)c2c(OS(=O)(=O)c3cccc4cccnc34)cccc21 | 3 | -6.5 | -8 | 332 | 4 | 3 | 291 | -6.6 | 418 | -14.3 |  |  | -1.7 | 219 | -8.2 | 239 |  | 195
CN(C)c1cccc2c(S(=O)(=O)Oc3cccc4c3C(=O)C(N3CC3)=C(N3CC3)C4=O)cccc12 | 0 | 3.8 | 3.9 | 110 | 0 | 0 | 117 | 2.2 | 115 |  |  |  |  |  |  |  |  | 
O=C1C(N2CC2)=C(N2CC2)C(=O)c2c(OS(=O)(=O)Cc3ccccc3)cccc21 | 0 | 3.1 | -3 | 127 | 0 | 0 | 141 | 2.4 | 153 |  |  |  |  |  |  |  |  | 
Cc1cc(C)c(S(=O)(=O)Oc2cccc3c2C(=O)C(N2CC2)=C(N2CC2)C3=O)c(C)c1 | 0 | -2.5 | -2.6 | 113 | 0 | 0 | 124 | -0.4 | 113 |  |  |  |  |  |  |  |  | 
O=C1C(N2CC2)=C(N2CC2)C(=O)c2c(OS(=O)(=O)c3ccc(Br)cc3)cccc21 | 0 | 11.2 | 8.3 | 214 | 0 | 0 | 179 | 12.2 | 165 | 0.7 |  |  | 1.1 | 153 | 2.5 | 151 |  | 143
O=C1C(N2CC2)=C(N2CC2)C(=O)c2c(OS(=O)(=O)/C=C/c3ccccc3)cccc21 | 0 | 1.9 | -1 | 132 | 0 | 0 | 150 | -3.5 | 130 |  |  |  |  |  |  |  |  | 
CCc1ccc(S(=O)(=O)Oc2cccc3c2C(=O)C(N2CC2)=C(N2CC2)C3=O)cc1 | 0 | 13.6 | 9.9 | 147 | 0 | 0 | 172 | 8.4 | 151 |  |  |  |  |  |  |  |  | 
CC(C)c1cc(C(C)C)c(S(=O)(=O)Oc2cccc3c2C(=O)C(N2CC2)=C(N2CC2)C3=O)c(C(C)C)c1 | 0 | 9 | 7.4 | 100 | 0 | 0 | 100 | 7.8 | 102 |  |  |  |  |  |  |  |  | 
O=C1C(N2CC2)=C(N2CC2)C(=O)c2c(OS(=O)(=O)c3cccs3)cccc21 | 5 | -4.7 | -6.4 | 165 | 5 | 4 |  | -2.3 |  | -22.7 |  |  | -10.8 | 161 | -18.2 | 77 |  | 156
CC(C)(C)c1ccc(S(=O)(=O)Oc2cccc3c2C(=O)C(N2CC2)=C(N2CC2)C3=O)cc1 | 0 | 11.8 | 6.7 | 104 | 0 | 0 | 98 | 12.8 | 98 |  |  |  |  |  |  |  |  | 
O=C1C(N2CC2)=C(N2CC2)C(=O)c2c(OS(=O)(=O)c3ccc(I)cc3)cccc21 | 0 | 11.1 | 15.8 | 127 | 0 | 0 | 146 | 14.6 | 146 | -4.1 |  |  | 4.1 | 138 | 0.6 | 141 |  | 132
O=C1C(N2CC2)=C(N2CC2)C(=O)c2c(OS(=O)(=O)c3cccc4ccccc34)cccc21 | 0 | 9.2 | 13.7 | 107 | 0 | 0 | 104 | 14.6 | 104 |  |  |  |  |  |  |  |  | 
CCCCS(=O)(=O)Oc1cccc2c1C(=O)C(N1CC1)=C(N1CC1)C2=O | 0 | -10.9 | -11.3 | 131 | 0 | 0 | 131 | 0.1 | 124 |  |  |  |  |  |  |  |  | 
O=C1C(N2CC2)=C(N2CC2)C(=O)c2c(OS(=O)(=O)CCCCl)cccc21 | 0 | -12.1 | -27.6 | 123 | 0 | 0 | 150 | -7.5 | 145 |  |  |  |  |  |  |  |  | 
CCCCCCCCCCCCCCCCS(=O)(=O)Oc1cccc2c1C(=O)C(N1CC1)=C(N1CC1)C2=O | 0 | 9.9 | 9.7 | 96 | 0 | 0 | 91 | 13 | 91 |  |  |  |  |  |  |  |  | 
O=C1C(N2CC2)=C(N2CC2)C(=O)c2c(OS(=O)(=O)c3ccc([N+](=O)[O-])cc3)cccc21 | 4 | -12.9 | -13.1 | 402 | 3 | 4 | 152 | -11.1 | 293 |  |  |  |  |  |  |  |  | 
